Assay results as given in patent publication US7517874B2 (priority 2007, dated 2009).

Tests used:
[1] = target: human CB1 receptor (hCB1) (Homo sapiens, UniProt P21554); assay: cell-based; type: cell-based; details: for +/− HCB1: agonist or inverse agonist at hCB1
In short: (§1)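 First, cells in IBMX-containing HEPES-buffered HBSS are raised to elevated cAMP with 2-8 μM NKH-477 for 30 min. Data are normalised to the forskolin and forskolin + 1 μM CP55,940 controls.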

[2] = target: T1, rat CB2 receptor (rCB2) (Rattus norvegicus, UniProt Q9QZN9); assay: cell-based; type: cell-based; details: for +/− RCB2: agonist or inverse agonist at rCB2
T1 sequence (Q9QZN9 1-360): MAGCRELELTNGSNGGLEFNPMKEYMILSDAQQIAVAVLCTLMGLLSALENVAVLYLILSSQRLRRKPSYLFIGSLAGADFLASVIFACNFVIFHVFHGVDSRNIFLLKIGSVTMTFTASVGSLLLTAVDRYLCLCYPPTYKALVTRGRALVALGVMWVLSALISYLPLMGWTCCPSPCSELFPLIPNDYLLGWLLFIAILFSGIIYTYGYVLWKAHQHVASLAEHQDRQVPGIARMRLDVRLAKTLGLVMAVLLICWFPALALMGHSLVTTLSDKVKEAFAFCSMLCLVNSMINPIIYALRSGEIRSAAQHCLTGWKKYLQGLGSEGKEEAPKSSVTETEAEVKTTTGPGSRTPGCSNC
In short: as §1

[3] = tested on: Male Sprague-Dawley rats; assay: Complete Freund's Adjuvant (CFA) model of inflammatory pain, Randall-Selitto paw pressure; type: in vivo; details: rat, intraperitoneal
Description: Male Sprague-Dawley rats (Hsd:Sprague-Dawley®™SD®™, Harlan, Indianapolis, Ind.) weighing 201±1 grams, were housed three per cage. Animals had free access to food and water and were maintained on a twelve hour light/dark schedule for the entire duration of the experiment. Approximately 12 hours prior to behavioral testing, animals were placed on wire mesh bottom cages with free access to water but no access to food. Test compounds were prepared in 50% PEG-400 (Sigma-Aldrich, cat. P3265). Indomethacin (Fluka, cat 57413) was suspended in 0.5% methylcellulose (Sigma-Aldrich, cat. 274429). Groups of eight animals were anesthetized with 2-3% isoflurane and local inflammation induced by 50 μl CFA (Sigma-Aldrich, cat F5881, Mycobacterium tuberculosis 1 mg/ml) injected subcutaneously into the plantar surface of the left paw.
Assessment of mechanical hyperalgesia: Baseline and post-treatment withdrawal thresholds to a noxious mechanical stimulus were measured using the Randall-Selitto paw pressure apparatus (Ugo Basile Analgesymeter, model 7200). […] Mechanical hyperalgesia was measured using the Randall-Selitto paw pressure device before CFA injection and after intraperitoneal (i.p.) compound administration over a twenty-four-hour period. The mean and standard error of the mean (SEM) were determined for the injured and normal paws for each treatment group.

[4] = tested on: rats; assay: Spinal nerve ligation (SNL) model of neuropathic pain; type: in vivo; details: rat, oral 3, 10 and 30 mg/kg, FIG. 4
Description: The SNL model (Kim and Chung 1992) was used to induce chronic neuropathic pain in rats. The rats were anesthetized with isoflurane, the left L5 transverse process was removed, and the L5 and L6 spinal nerves were tightly ligated with 6-0 silk suture. The wound was then closed with internal sutures and external staples. Following at least seven days post SNL, baseline, post-injury and post-treatment values for non-noxious mechanical sensitivity were evaluated using eight Semmes-Weinstein filaments (Stoelting, Wood Dale, Ill., USA) with varying stiffness (0.4, 0.7, 1.2, 2.0, 3.6, 5.5, 8.5, and 15 g) according to the up-down method (Chaplan et al. 1994). Animals were placed on a perforated metallic platform and allowed to acclimate to their surroundings for a minimum of thirty minutes before testing. The mean and standard error of the mean (SEM) were determined for the injured paw in each treatment group. Since this stimulus is normally not considered painful, significant injury-induced increases in responsiveness in this test are interpreted as a measure of mechanical allodynia. The dose which elicited 50% attenuation of mechanical hypersensitivity (ED50) was determined using linear regression analysis. Results obtained after oral administration of compound 317 at 3, 10 and 30 mg/kg and with compound 366 at 1, 3 and 10 mg/kg are shown in FIG. 4.

Chain of human CB1 receptor (hCB1) (P21554 whole entry): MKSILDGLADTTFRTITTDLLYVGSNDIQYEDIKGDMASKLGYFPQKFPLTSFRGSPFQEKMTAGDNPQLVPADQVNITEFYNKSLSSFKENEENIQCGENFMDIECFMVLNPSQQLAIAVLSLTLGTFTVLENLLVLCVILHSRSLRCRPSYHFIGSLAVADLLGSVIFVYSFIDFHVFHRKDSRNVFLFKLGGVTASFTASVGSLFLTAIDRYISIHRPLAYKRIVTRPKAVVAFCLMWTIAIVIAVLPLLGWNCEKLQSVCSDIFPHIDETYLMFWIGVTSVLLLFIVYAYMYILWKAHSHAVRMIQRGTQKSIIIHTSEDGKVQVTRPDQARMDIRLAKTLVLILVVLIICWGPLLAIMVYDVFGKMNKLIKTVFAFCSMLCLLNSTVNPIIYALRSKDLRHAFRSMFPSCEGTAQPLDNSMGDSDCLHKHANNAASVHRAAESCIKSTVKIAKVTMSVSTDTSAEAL

| SMILES | EC50 [1] [µM] | +/− RCB2 [2] | side effects during the experiment [3] | effect in the neuropathic pain model [4] | +/− HCB1 [1] | EC50 [2] [µM] |
| --- | --- | --- | --- | --- | --- | --- |
| CCS(=O)(=O)N1CCn2c(-c3ccccc3)nc(C(=O)N[C@H](C(=O)NC)C(C)(C)C)c2C1 [Compound 91, (S)-N-(3,3-dimethyl-1-(methylamino)-1-oxobutan-2-yl)-7-(ethylsulfonyl)-3-phenyl-5,6,7,8-tetrahydroimidazo[1,5-a]pyrazine-1-carboxamide] | > 10 | − | No side effects were observed |  |  |  |
| CNC(=O)[C@@H](NC(=O)c1nc(-c2ccccc2)n2c1CN(C)CCC2)C(C)(C)C [Compound 317, (S)-N-(3,3-dimethyl-1-(methylamino)-1-oxobutan-2-yl)-8-methyl-3-phenyl-6,7,8,9-tetrahydro-5H-imidazo[1,5-a][1,4]diazepine-1-carboxamide] | > 10 | + |  | dose response in the neuropathic pain model |  |  |
| CNC(=O)[C@@H](NC(=O)c1nc(-c2ccc(Cl)cc2F)n2c1CN(C)CCC2)C(C)(C)C [Compound 366, (S)-3-(4-chloro-2-fluorophenyl)-N-(3,3-dimethyl-1-(methylamino)-1-oxobutan-2-yl)-8-methyl-6,7,8,9-tetrahydro-5H-imidazo[1,5-a][1,4]diazepine-1-carboxamide] |  | + |  | dose response in the neuropathic pain model | + |  |
| CNC(=O)[C@@H](NC(=O)c1nc(-c2c(F)cccc2F)n2c1CN(C)CCC2)C(C)(C)C [Compound 601, (S)-3-(2,6-difluorophenyl)-N-(3,3-dimethyl-1-(methylamino)-1-oxobutan-2-yl)-8-methyl-6,7,8,9-tetrahydro-5H-imidazo[1,5-a][1,4]diazepine-1-carboxamide] |  | + |  |  | + |  |
| CNC(=O)[C@@H]1CCCN1C(=O)c1nc(-c2ccccc2)n2c1CNCCC2 [Compound 602] |  |  |  |  | − | > 10 |
| CNC(=O)[C@@H]1CCCN1C(=O)c1nc(-c2ccccc2)n2c1CN(C)CCC2 [Compound 603, (S)-N-methyl-1-(8-methyl-3-phenyl-6,7,8,9-tetrahydro-5H-imidazo[1,5-a][1,4]diazepine-1-carbonyl)pyrrolidine-2-carboxamide] | > 10 |  |  |  |  | > 10 |
| CNC(=O)C(NC(=O)c1nc(-c2ccccc2)n2c1CNCCC2)C(C)(C)F (centres unmarked) [Compound 604, N-(3-fluoro-3-methyl-1-(methylamino)-1-oxobutan-2-yl)-3-phenyl-6,7,8,9-tetrahydro-5H-imidazo[1,5-a][1,4]diazepine-1-carboxamide] | > 10 | + |  |  |  |  |
| CNC(=O)C(NC(=O)c1nc(-c2ccccc2)n2c1CN(C)CCC2)C(C)(C)F (centres unmarked) [Compound 605, N-(3-fluoro-3-methyl-1-(methylamino)-1-oxobutan-2-yl)-8-methyl-3-phenyl-6,7,8,9-tetrahydro-5H-imidazo[1,5-a][1,4]diazepine-1-carboxamide] | > 10 | + |  |  |  |  |
| CNC(=O)[C@@H](NC(=O)c1nc(-c2ccccc2)n2c1CNCCC2)C(C)(C)O [Compound 606, (S)-N-(3-hydroxy-3-methyl-1-(methylamino)-1-oxobutan-2-yl)-3-phenyl-6,7,8,9-tetrahydro-5H-imidazo[1,5-a][1,4]diazepine-1-carboxamide] | > 10 | + |  |  |  |  |
| CNC(=O)[C@@H](NC(=O)c1nc(-c2ccccc2)n2c1CN(C)CCC2)C(C)(C)O [Compound 607, (S)-N-(3-hydroxy-3-methyl-1-(methylamino)-1-oxobutan-2-yl)-8-methyl-3-phenyl-6,7,8,9-tetrahydro-5H-imidazo[1,5-a][1,4]diazepine-1-carboxamide] | > 10 | + |  |  |  |  |
